# Measurements from patent US8222297B2, “Aniline or phenol mustards linked to DNA-affinic molecules or water-soluble aromatic rings and their use as cancer therapeutic agents” (Academia Sinica, priority 2007, dated 2012).
# Read-outs that look alike come from different tables or passages of the source.
# Tests used:
# MX-1 cells = assay: Inhibition of biosynthesis of DNA, RNA and protein (tracer incorporation); format: cell-based, human; details: for degrees of inhibiting biosynthesis of DNA and RNA, maximized: [3H]thymidine / [3H]adenosine incorporation; for persistence of inhibition of biosynthesis: printed 'over 6-24 hrs'
# Experimental: [^3H]Thymidine (1 uCi), [^3H]adenosine (1 μCi) and [^3H]leucine (2 μCi) were used as the tracers for incorporation into DNA, RNA and protein, respectively. […] Incubation was terminated at each time points as indicated. For details of the method see Chou et al. Cancer Research 43: 3074-3079, 1983. […] The half-maximal inhibition was reached within 15-30 min and persisted for over 6-24 hrs.
# CCRF-CEM/Taxol = assay: In vitro cytotoxicity, XTT assay, taxol-resistant subline; details: for fold of cross-resistant, CCRF-CEM/Taxol vs IC50 of parent cell line: number in brackets; for IC50: Homo sapiens, CCRF-CEM, 72 h, read-out: IC50 CCRF-CEM/Taxol, XTT assay, 72-hr incubation
# [1] = system: Human colon carcinoma HCT-116 cells; assay: In vitro cytotoxicity, SRB assay
# [2] = system: human mammary carcinoma MX-1 xenograft; assay: Antitumor therapeutic effect in nude mice bearing MX-1 xenograft; format: in vivo; details: for Tumor remission achieved: doses and schedules as in Table 2 (30-150 mg/kg, i.v.); for log cell kill: estimated by Eq. 4 from remission time; for Duration complete remission maintained without relapse: one cycle 5-dose-treatment, 3 out of 3 mice
# Experimental: (§1) Athymic nude mice bearing the nu/nu gene were used for human breast tumor MX-1 xenograft (FIGS. 3 and 4) and human brain glioma U87 GM xenograft (FIG. 5). Nude mice were obtained from National Cancer Institute, Frederick, Md. Male mice 6 weeks old or older weighing 22 g or more were used for experiments with subcutaneous tumor inoculation as described previously.^62 Drug was administrated via the tail vein by iv injection. Tumor volumes were assessed by measuring length×width×height (or width) by using caliper. Vehicle used was 20 μL DMSO in 180 μL saline. All animal studies were conducted in accordance with the guidelines of the U.S. National Institutes of Health Guide for the Care and Use of Animals and the protocol approved by the Institutional Animal Care and Use Committee.
# (§2) Animals. Athymic nude mice bearing the nu/nu gene were obtained from NCI, Frederick, Md. and used for all human tumor xenografts. Male nude mice 6 weeks or older weighing 20-24 g or more were used. Compounds were administered via the tail vein for i.v. injection or infusion as described previously.^59 A typical formulation for chemotherapeutic studies for each drug was dissolved in DSMO to make a 25 mg/ml fresh solution, 0.4 ml of this solution was mixed with 0.3 ml of Tween 80, plus 1.3 ml to make 2 ml of 5 mg/ml solution. Bolus injection volume was 0.1-0.2 ml per mouse. Tumor volume was assessed by measuring length×width×height (or width) by using a caliper. For tumor-bearing nude mice during the course of the experiment, the body weight refers to total weight minus the weight of the tumor. All animal studies were conducted in accordance with the guidelines for the National Institute of Health Guide for the Care and Use of Animals and the protocol approved by the Institutional Animal Care and Use Committee.
# The therapeutic effects of a drug against human tumor xenografts in nude mice, under the optimal therapeutic conditions but without any lethality due to drug toxicity, the following degrees of therapeutic effects are defined and calculated by the following formula:
# [formula] • where T0 is the initial tumor size (in mm^3) at beginning of drug treatment; • Tc is tumor size of untreated control group on a given date; and • Tx is tumor size of the drug treated group on a given date.
# [formula] • Where T0 and Tx are as specified as above. • Tumor disappearance (complete remission or CR) is defined by the effect where [Tx=0] for a period of time (in days) for a proportion of animals (NCR/N), where N is the total number of animals in the group, and NCR is the number of mice in the group that achieved CR. • Tumor relapse is quantitatively calculated by [The Day tumor relapsed(Drelp)−The Day CR achieved(DCR)] (Eq. 3) • for a proportion of animals (Nrelp/N) where N is the total number of animals in the group, and Nrelp is the number of the mice in the group that relapsed. • The log cell kill (LCK) of the tumor tissue after a given chemotherapy that reached CR is estimated by: LCK=log [2^(Tumor remission in days/Tumor doubling time in days)] (Eq. 4)
# [3] = system: human glioma U87 GM s.c. xenograft; assay: Therapeutic effect in nude mice bearing U87 glioma xenograft; format: in vivo
# Experimental: as §1
# The therapeutic effects of N-mustard compounds, BO-1049, 1051 and 1055, against human glioma U87 GM s.c. xenograft in nude mice were given in FIG. 5, A and B. U87 glioma is known to be refractory tumor that can not be effectively treated with cell-cycle specific anti-tumor drugs such as taxol, epothilones, or arabinosylcytosine. However, cell-cycle non-specific drugs such as alkylating agent, cyclophosphamide or BCNU, yields better therapeutic results. […] However, upon 6 days of recession of treatment with BO-1049 or BO-1055, the tumor began to regrow.
# as §2
# [4] = system: CCRF-CEM human lymphoblastic leukemia cells; assay: In vitro cytotoxicity, XTT assay
# [5] = system: Human mammary carcinoma (MX-1) tumor cells; assay: In vitro cytotoxicity, SRB assay
# [6] = Homo sapiens, HCT-116, 72 h, read-out: IC50 HCT-116, SRB assay, 72-hr incubation
# [7] = Homo sapiens, CCRF-CEM, 72 h, read-out: IC50 CCRF-CEM, XTT assay, 72-hr incubation
# [8] = Homo sapiens, 72 h, read-out: IC50 MX-1, SRB assay, 72-hr incubation
# [9] = read-out: IC50 CCRF-CEM, XTT assay, 72-hr incubation
smiles,measurement,setting,value
"Cc1cc(NC(=O)Nc2ccc(N(CCCl)CCCl)cc2)c2ccccc2n1 [BO-1038, 1-{4-[Bis(2-chloroethyl)amino]phenyl}-3-(2-methyl-quinolin-4-yl)urea]",time to half-maximal inhibition of biosynthesis,MX-1 cells; 10 μM,15 to 30 min
same,"degrees of inhibiting biosynthesis of DNA and RNA, maximized",MX-1 cells; 10 μM,50-80%
same,persistence of inhibition of biosynthesis,MX-1 cells; 10 μM,6 to 24 h
same,"fold of cross-resistant, CCRF-CEM/Taxol vs IC50 of parent cell line",CCRF-CEM/Taxol,2.2 x
same,IC50,[1]; [6],1240 nM
same,Tumor remission achieved,[2],complete tumor remission
same,log cell kill,[2],> 4.1
same,Duration complete remission maintained without relapse,[2],over 70 days
"COc1cc(NC(=O)Oc2ccc(N(CCCl)CCCl)cc2)cc(Nc2c3ccccc3nc3ccccc23)c1 [BO-1066, [3-(Acridin-9-ylamino)-5-methoxyphenyl]carbamic acid 4-[bis(2-chloroethyl)-amino]phenyl ester]","fold of cross-resistant, CCRF-CEM/Taxol vs IC50 of parent cell line",CCRF-CEM/Taxol,1.5 x
same,Tumor remission achieved,[2],complete tumor remission
Cc1ccc(Nc2c3ccccc3nc3c(C)cccc23)cc1NC(=O)Nc1ccc(N(CCCl)CCCl)cc1 [BO-1051],delay in reaching maximal effect on DNA and RNA biosynthesis,MX-1 cells; 10 μM,about 1 hr
same,time to half-maximal inhibition of biosynthesis,MX-1 cells; 10 μM,15 to 30 min
same,"degrees of inhibiting biosynthesis of DNA and RNA, maximized",MX-1 cells; 10 μM,50-80%
same,persistence of inhibition of biosynthesis,MX-1 cells; 10 μM,6 to 24 h
same,inhibition at 10 µM,"MX-1 cells; Homo sapiens, MX1, 0.5 h, after initial activation within the first 30 min, read-out: protein synthesis: moderate inhibition following initial activation",~20%
same,tumor-growth suppression,"[3]; 100 mg/kg, Q2D×5, i.v.-injection, n=3",complete tumor-growth suppression
same,tumor size as % of original tumor size,"[3]; 100 mg/kg, Q2D×5, n=3, one cycle, observed 10 and 12 days after last dose on Day 16",18%
same,therapeutic effect compared with cyclophosphamide,"[3]; BO-1049 150, BO-1051 100, BO-1055 30 mg/kg vs cyclophosphamide 80 mg/kg, all Q2D×5, parallel study",superior therapeutic effects than cyclophosphamide
same,IC50,[4]; [7],74 nM
same,IC50,[5]; [8],174 nM
same,Tumor remission achieved,[2],complete tumor remission
same,log cell kill,[2],> 4.1
same,Duration complete remission maintained without relapse,[2],over 70 days
"O=C(Nc1ccc(N(CCCl)CCCl)cc1)Nc1cc(CO)cc(Nc2c3ccccc3nc3ccccc23)c1 [BO-1037, 1-[3-(Acridin-9-ylamino)-5-hydroxymethylphenyl]-3-{4-[bis(2-chloroethyl)amino]phenyl}-urea]",IC50,[4]; [7],54.5 nM
same,Tumor remission achieved,[2],CR in parts of the mice
"CC[C@]1(O)C[C@@H]2CN(CCc3c([nH]c4ccccc34)[C@@](C(=O)OC)(c3cc4c(cc3OC)N(C)[C@H]3[C@@](O)(C(=O)OC)[C@H](OC(C)=O)[C@]5(CC)C=CCN6CC[C@]43[C@@H]65)C2)C1 [Vinblastine, reference compound]","fold of cross-resistant, CCRF-CEM/Taxol vs IC50 of parent cell line",CCRF-CEM/Taxol,106.2 x
same,IC50,[4]; [7],0.73 ± 0.09 nM
same,IC50,[1]; [6],1.8 ± 0.4 nM
same,IC50,[5]; [8],2.9 ± 0.5 nM
"CC(=O)O[C@H]1C(=O)[C@@]2(C)[C@H]([C@H](OC(=O)c3ccccc3)[C@]3(O)C[C@H](OC(=O)[C@H](O)[C@@H](NC(=O)c4ccccc4)c4ccccc4)C(C)=C1C3(C)C)[C@]1(OC(C)=O)CO[C@@H]1C[C@@H]2O [Taxol, reference compound]","fold of cross-resistant, CCRF-CEM/Taxol vs IC50 of parent cell line",CCRF-CEM/Taxol,330 x
same,IC50,[4]; [7],1.3 ± 0.1 nM
same,IC50,[1]; [6],1.3 ± 0.2 nM
same,IC50,[5]; [8],35 ± 14 nM
"O=C(Nc1cc(CO)cc(Nc2c3ccccc3nc3ccccc23)c1)Oc1ccc(N(CCCl)CCCl)cc1 [BO-1062, [3-(Acridin-9-ylamino)-5-hydroxymethylphenyl]carbamic acid 4-[bis(2-chloro-ethyl)amino]phenyl ester]",IC50,CCRF-CEM/Taxol,112 nM
same,"fold of cross-resistant, CCRF-CEM/Taxol vs IC50 of parent cell line",CCRF-CEM/Taxol,2.0 x
same,IC50,[4]; [7],57 nM
same,Tumor remission achieved,[2],complete tumor remission
"Cc1ccc(Nc2c3ccccc3nc3c(C)cccc23)cc1NC(=O)Oc1ccc(N(CCCl)CCCl)cc1 [BO-1064, [2-Methyl-5-(4-methylacridin-9-ylamino)phenyl]carbamic acid 4-[bis(2-chloro-ethyl)amino]phenyl ester]","fold of cross-resistant, CCRF-CEM/Taxol vs IC50 of parent cell line",CCRF-CEM/Taxol,1.4 x
same,IC50,[4]; [7],116 nM
same,Tumor remission achieved,[2],complete tumor remission
"Cc1ccc(NC(=O)Nc2ccc(N(CCCl)CCCl)cc2)cc1Nc1c2cccc(C)c2nc2c(C(=O)NCCN(C)C)cccc12 [BO-1053, 9-[5-(3-{4-[Bis(2-chloroethyl)amino]phenyl}ureido)-2-methylphenylamino]-5-methylacridine-4-carboxylic acid (2-dimethylaminoethyl)amide]","fold of cross-resistant, CCRF-CEM/Taxol vs IC50 of parent cell line",CCRF-CEM/Taxol,15.3 x
same,IC50,[4]; [9],12 nM
same,Remark (tolerability of dose),"[2]; 70 mg/kg, Q2D × 5, i.v.",Too high dose
same,Tumor remission achieved,[2],complete tumor remission
"CCOC(=O)Nc1cc(COC(=O)Nc2ccc(N(CCCl)CCCl)cc2)cc(Nc2c3ccccc3nc3ccccc23)c1 [BO-1054, (3-(Acridin-9-ylamino)-5-{4-[bis(2-chloroethyl)amino]phenylcarbamoyloxymethyl}-phenyl)carbamic acid ethyl ester]",IC50,[4]; [9],84 nM
same,IC50,"[1]; read-out: IC50 HCT-116, SRB assay, 72-hr incubation",757 nM
same,IC50,"[5]; read-out: IC50 MX-1, SRB assay, 72-hr incubation",605 nM
"CCOC(=O)Nc1cc(COC(=O)Oc2ccc(N(CCCl)CCCl)cc2)cc(Nc2c3ccccc3nc3ccccc23)c1 [BO-1065, Carbonic acid 3-(acridin-9-ylamino)-5-ethoxycarbonylaminobenzyl ester 4-[bis(2-chloroethyl)amino]phenyl ester]",Remark (tolerability of dose),"[2]; 100 mg/kg, QD × 3, i.v.",Too high dose
"Cc1cccc2c(Nc3cc(CO)cc(NC(=O)Nc4ccc(N(CCCl)CCCl)cc4)c3)c3ccccc3nc12 [BO-1050, 1-{4-[bis(2-chloroethyl)amino]phenyl}-3-[3-hydroxymethyl-5-(4-methylacridin-9-ylamino)phenyl]urea]","fold of cross-resistant, CCRF-CEM/Taxol vs IC50 of parent cell line",CCRF-CEM/Taxol,12.8 x
same,IC50,[4]; [7],30 nM
same,IC50,[5]; [8],128 nM
same,Tumor remission achieved,[2],CR in parts of the mice
same,log cell kill,[2],> 4.1
same,Duration complete remission maintained without relapse,[2],over 70 days
"Cc1cccc2c(Nc3cc(CO)cc(NC(=O)Oc4ccc(N(CCCl)CCCl)cc4)c3)c3ccccc3nc12 [BO-1063, [3-Hydroxymethyl-5-(4-methylacridin-9-ylamino)phenyl]carbamic acid 4-[bis(2-chloroethyl)amino]phenyl ester]",IC50,CCRF-CEM/Taxol,81 nM
same,"fold of cross-resistant, CCRF-CEM/Taxol vs IC50 of parent cell line",CCRF-CEM/Taxol,1.1 x
same,IC50,[4]; [7],75 nM
same,Remark (tolerability of dose),"[2]; 100 mg/kg, QD × 3, i.v.",Too high dose
"O=C(Nc1ccc(N(CCCl)CCCl)cc1)Nc1c2ccccc2nc2ccccc12 [BO-1034, 1-Acridin-9-yl-3{4-[bis(2-chloroethyl)amino]phenyl}urea]",IC50,CCRF-CEM/Taxol,418 nM
same,"fold of cross-resistant, CCRF-CEM/Taxol vs IC50 of parent cell line",CCRF-CEM/Taxol,2.1 x
same,IC50,[4]; [7],198 nM
